The values that follow come from patent US8569344B2, “N-piperidinyl acetamide derivatives as calcium channel blockers” (Zalicus Pharmaceuticals Ltd., priority 2008, dated 2013).

What all share (assay type): cell-based
Series [1] has as its target hERG K+ channel (Homo sapiens, UniProt Q12809). As to the kind of experiment: hERG K+ Channel Block.
In series [2] the target is T1, human α1G T-type channels (Homo sapiens, UniProt O43497).
T1 construct: expressed in transfected cells; host or cells: HEK 293
As to the kind of experiment: T-type calcium channel block, whole cell patch clamp in HEK cells (α1G). The note with it: HEK cells, patch clamp, mainly non-inactivated protocol; values above 10 μM shown as 10 μM, below 0.30 μM shown as 0.30 μM; read-out: T-type Calcium Channel Block α1G IC50.

Series [3] has as its target T2, human α1H T-type channels (Homo sapiens, UniProt O95180).
T2 construct: expressed in transfected cells; host or cells: HEK 293
As to the kind of experiment: T-type calcium channel block, whole cell patch clamp in HEK cells (α1H). The note with it: HEK cells, patch clamp, mainly non-inactivated protocol; values above 10 μM shown as 10 μM; read-out: T-type Calcium Channel Block α1H IC50.

Like-named read-outs stand apart in the source and are kept apart here.

T2 sequence (O95180 whole entry): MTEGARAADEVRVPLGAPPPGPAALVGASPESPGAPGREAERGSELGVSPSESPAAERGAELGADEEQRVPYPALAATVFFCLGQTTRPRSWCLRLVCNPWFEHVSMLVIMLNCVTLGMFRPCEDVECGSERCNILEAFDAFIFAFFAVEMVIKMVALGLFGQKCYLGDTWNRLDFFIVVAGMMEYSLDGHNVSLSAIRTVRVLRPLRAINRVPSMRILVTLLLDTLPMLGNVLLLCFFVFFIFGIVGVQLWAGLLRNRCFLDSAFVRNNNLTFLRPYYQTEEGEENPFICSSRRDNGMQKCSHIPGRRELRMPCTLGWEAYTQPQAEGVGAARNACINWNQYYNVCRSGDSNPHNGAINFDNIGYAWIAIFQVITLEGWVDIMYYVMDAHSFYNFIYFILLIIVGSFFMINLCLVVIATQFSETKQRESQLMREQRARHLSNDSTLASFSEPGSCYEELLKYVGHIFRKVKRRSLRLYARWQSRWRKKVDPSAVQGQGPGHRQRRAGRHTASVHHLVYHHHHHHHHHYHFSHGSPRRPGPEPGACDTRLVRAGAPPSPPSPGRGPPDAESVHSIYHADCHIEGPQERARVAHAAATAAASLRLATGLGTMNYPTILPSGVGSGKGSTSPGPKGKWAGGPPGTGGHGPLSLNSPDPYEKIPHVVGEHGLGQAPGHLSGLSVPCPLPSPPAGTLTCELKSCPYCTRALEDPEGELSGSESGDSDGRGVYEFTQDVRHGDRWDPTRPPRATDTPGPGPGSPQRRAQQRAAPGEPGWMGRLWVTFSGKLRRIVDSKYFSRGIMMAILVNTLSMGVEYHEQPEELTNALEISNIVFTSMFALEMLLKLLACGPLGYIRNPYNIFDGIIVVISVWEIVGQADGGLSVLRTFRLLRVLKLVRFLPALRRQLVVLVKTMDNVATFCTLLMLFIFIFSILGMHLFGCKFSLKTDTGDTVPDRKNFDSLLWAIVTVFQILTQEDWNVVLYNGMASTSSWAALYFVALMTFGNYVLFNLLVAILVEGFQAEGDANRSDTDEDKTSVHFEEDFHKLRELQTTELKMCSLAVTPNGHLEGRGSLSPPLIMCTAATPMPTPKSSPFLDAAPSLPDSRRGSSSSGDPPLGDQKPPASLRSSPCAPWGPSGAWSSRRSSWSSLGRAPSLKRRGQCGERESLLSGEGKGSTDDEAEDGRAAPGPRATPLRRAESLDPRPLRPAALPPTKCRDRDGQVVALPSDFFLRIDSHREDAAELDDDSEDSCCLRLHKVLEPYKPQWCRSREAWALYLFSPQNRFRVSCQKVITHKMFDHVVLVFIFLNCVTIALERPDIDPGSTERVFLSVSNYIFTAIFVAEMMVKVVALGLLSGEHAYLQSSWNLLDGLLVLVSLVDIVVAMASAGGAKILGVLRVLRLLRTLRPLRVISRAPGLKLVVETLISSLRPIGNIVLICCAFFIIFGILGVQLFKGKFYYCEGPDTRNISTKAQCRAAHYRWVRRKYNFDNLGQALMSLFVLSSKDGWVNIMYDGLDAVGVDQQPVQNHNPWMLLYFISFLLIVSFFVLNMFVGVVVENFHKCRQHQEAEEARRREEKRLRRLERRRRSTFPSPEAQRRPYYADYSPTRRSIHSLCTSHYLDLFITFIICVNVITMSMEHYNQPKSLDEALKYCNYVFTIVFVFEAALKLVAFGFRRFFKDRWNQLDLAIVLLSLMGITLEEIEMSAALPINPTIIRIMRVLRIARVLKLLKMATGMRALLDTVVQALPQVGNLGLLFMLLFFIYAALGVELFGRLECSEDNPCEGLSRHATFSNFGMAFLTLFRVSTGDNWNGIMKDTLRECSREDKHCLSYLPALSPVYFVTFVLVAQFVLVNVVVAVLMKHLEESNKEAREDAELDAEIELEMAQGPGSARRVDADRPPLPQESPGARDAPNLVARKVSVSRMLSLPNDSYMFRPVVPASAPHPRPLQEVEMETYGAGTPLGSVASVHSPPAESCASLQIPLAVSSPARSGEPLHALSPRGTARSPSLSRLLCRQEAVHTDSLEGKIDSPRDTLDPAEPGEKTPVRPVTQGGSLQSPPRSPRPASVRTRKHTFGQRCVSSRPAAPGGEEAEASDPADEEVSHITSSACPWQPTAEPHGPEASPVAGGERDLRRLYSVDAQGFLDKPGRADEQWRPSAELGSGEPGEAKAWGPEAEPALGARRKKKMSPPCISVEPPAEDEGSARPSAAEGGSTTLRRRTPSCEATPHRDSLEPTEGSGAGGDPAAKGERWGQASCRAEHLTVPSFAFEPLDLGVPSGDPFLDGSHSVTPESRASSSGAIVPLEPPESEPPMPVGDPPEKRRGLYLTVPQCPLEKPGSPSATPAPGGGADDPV
hERG K+ channel, sequence (Q12809 whole entry): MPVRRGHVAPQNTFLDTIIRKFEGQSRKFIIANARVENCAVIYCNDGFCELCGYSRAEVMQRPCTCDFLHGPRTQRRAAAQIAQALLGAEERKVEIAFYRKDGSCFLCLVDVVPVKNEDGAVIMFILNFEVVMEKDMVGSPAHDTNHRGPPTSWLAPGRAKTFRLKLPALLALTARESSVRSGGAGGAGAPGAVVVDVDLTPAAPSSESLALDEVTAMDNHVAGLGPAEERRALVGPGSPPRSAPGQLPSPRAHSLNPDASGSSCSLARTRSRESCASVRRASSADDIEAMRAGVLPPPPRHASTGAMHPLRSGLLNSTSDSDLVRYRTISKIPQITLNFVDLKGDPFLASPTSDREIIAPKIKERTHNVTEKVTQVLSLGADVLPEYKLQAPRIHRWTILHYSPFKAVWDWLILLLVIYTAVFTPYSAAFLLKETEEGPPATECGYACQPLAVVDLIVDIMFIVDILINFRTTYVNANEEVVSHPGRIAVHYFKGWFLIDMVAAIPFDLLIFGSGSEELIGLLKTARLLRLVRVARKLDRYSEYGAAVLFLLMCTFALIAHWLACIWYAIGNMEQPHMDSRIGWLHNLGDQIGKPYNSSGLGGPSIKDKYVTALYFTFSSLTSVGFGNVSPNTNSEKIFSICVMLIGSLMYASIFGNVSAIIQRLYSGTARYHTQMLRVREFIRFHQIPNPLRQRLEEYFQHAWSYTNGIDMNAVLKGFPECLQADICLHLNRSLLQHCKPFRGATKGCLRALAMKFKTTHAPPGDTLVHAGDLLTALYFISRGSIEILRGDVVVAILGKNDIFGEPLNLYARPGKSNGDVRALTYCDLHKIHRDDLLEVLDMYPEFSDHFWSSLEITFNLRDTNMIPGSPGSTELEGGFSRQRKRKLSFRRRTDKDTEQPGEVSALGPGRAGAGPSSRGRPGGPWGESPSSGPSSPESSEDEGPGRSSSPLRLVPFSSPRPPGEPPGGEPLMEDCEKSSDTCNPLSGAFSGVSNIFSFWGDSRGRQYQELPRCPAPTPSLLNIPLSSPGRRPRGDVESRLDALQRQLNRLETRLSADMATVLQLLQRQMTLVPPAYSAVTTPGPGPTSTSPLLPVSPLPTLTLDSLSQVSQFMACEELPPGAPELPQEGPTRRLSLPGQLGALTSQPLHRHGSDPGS

As for `COc1cc(OC)cc(C(=O)NCC2CCN(CC(=O)NC(C)(C)C(F)(F)F)CC2)c1` [Compound 457, 3,5-dimethoxy-N-((1-(2-oxo-2-(1,1,1-trifluoro-2-methylpropan-2-ylamino)ethyl)piperidin-4-yl)methyl)benzamide], the IC50 is no less than 16.6 µM in series [1] (human), less than 0.3 µM in series [2] and 0.05 µM in series [3].

As to `CC(C)(C)NC(=O)CN1CCC(CNC(=O)c2cccc(OC(F)(F)F)c2)CC1` [Compound 375, N-((1-(2-(tert-butylamino)-2-oxoethyl)piperidin-4-yl)methyl)-3-(trifluoromethoxy)benzamide], the IC50 in series [1] is 8.8 µM; in series [2], less than 0.3 µM; in series [3], 0.07 µM.

As to `CC(C)CS(=O)(=O)NCCN1CCC(CC(=O)Nc2cc(F)cc(C(F)(F)F)c2)CC1` [Compound 427, N-(3-fluoro-5-(trifluoromethyl)phenyl)-2-(1-(2-(2-methylpropylsulfonamido)ethyl)piperidin-4-yl)acetamide], the IC50 is 0.45 µM in series [1] and less than 0.3 µM in series [2].

Turning to `CN(C(=O)CN1CCC(CNC(=O)c2cccc(Cl)c2)CC1)C(C)(C)C(F)(F)F` [Compound 580, 3-chloro-N-((1-(2-(methyl(1,1,1-trifluoro-2-methylpropan-2-yl)amino)-2-oxoethyl)piperidin-4-yl)methyl)benzamide], the half-maximal inhibitory concentration (IC50) is no less than 8.3 µM in series [1] (human), less than 0.3 µM in series [2] and 0.22 µM in series [3].

Take `NC1(CN2CCC(CC(=O)Nc3cc(C(F)(F)F)cc(C(F)(F)F)c3)CC2)CCCC1` [Compound 159, 2-(1-((1-aminocyclopentyl)methyl)piperidin-4-yl)-N-(3,5-bis(trifluoromethyl)phenyl)acetamide]: the figures for the IC50 in series [1], in series [2] and in series [3] were 1.3 µM, 0.31 µM and 3.36 µM, respectively.

As for `O=C(NCC1CCN(CCNC(=O)C2(C(F)(F)F)CC2)CC1)c1cccc(Br)c1` [Compound 501, 3-bromo-N-((1-(2-(1-(trifluoromethyl)cyclopropanecarbox-amido)ethyl)piperidin-4-yl)methyl) benzamide], the IC50 in series [1] was 5.6 µM; in series [2], less than 0.3 µM; in series [3] it was 0.12 µM.

Consider `CN(C(=O)CN1CCC(CNC(=O)c2cc(F)cc(C(F)(F)F)c2)CC1)C1(C)CCC1` [Compound 594, 3-fluoro-N-((1-(2-(methyl(1-methylcyclobutyl)amino)-2-oxoethyl)piperidin-4-yl)methyl)-5-(trifluoromethyl)benzamide], for which the figures for the IC50 in series [1] (human) and in series [3] were no less than 17 µM and 0.16 µM, respectively.

Regarding `CC(C)S(=O)(=O)NCCN1CCC(CC(=O)Nc2cc(Br)cc(C(F)(F)F)c2)CC1` [Compound 391, N-(3-bromo-5-(trifluoromethyl)phenyl)-2-(1-(2-(1-methylethylsulfonamido)ethyl)piperidin-4-yl)acetamide], the values for the IC50 in series [1] and in series [2] were 0.63 µM and less than 0.3 µM, respectively.

Regarding `CC(C)CS(=O)(=O)NCCN1CCC(CNC(=O)c2cc(F)cc(C(F)(F)F)c2)CC1` [Compound 26, 3-fluoro-N-((1-(2-(2-methylpropylsulfonamido)ethyl)piperidin-4-yl)methyl)-5-(trifluoromethyl)benzamide], the IC50 is 2.6 µM in series [1] and 0.2 µM in series [3].

With `O=C(NCC1CCN(CCNC(=O)C2CC2)CC1)c1cc(C(F)(F)F)cc(C(F)(F)F)c1` [Compound 59, N-((1-(2-(cyclopropanecarboxamido)ethyl)piperidin-4-yl)methyl)-3,5-bis(trifluoromethyl)benzamide], the IC50 in series [1] was determined as 2.8 µM; in series [3] it was 1.66 µM.

Regarding `O=C(NCC1CCN(CCNS(=O)(=O)C(F)(F)F)CC1)c1cc(Br)cc(C(F)(F)F)c1` [Compound 115, 3-bromo-5-(trifluoromethyl)-N-((1-(2-(trifluoromethylsulfonamido)ethyl)piperidin-4-yl)methyl)benzamide], the IC50 in series [1] (human) was no less than 8.3 µM; in series [3] it was 0.23 µM.

In the case of `Cc1cc(C)cc(C(=O)NCC2CCN(CC(=O)NC3(C)CCC3)CC2)c1` [Compound 475, 3,5-dimethyl-N-((1-(2-(1-methylcyclobutylamino)-2-oxoethyl)piperidin-4-yl)methyl) benzamide], the IC50 in series [2] was less than 0.3 µM; in series [3], 0.17 µM.

As to `Cc1cc(C)cc(C(=O)NCC2CCN(CCNC(=O)OC(C)(C)C)CC2)c1` [Compound 42, tert-butyl 2-(4-((3,5-dimethylbenzamido)methyl)piperidin-1-yl)ethylcarbamate], the figures for the IC50 in series [2] and in series [3] were 1.64 µM and 0.76 µM, respectively.

Consider `O=C(NCC1CCN(CCNC(=O)C2(C(F)(F)F)CC2)CC1)c1cccc(Cl)c1` [Compound 502, 3-chloro-N-((1-(2-(1-(trifluoromethyl)cyclopropanecarbox-amido)ethyl)piperidin-4-yl)methyl) benzamide], for which the half-inhibitory concentration (IC50) amounted to 0.59 µM in series [2] and 0.23 µM in series [3].

Take `O=C(CN1CCC(CNC(=O)c2cccc(Cl)c2)CC1)NN1CCCCC1` [Compound 527, 3-chloro-N-((1-(2-oxo-2-(piperidin-1-ylamino)ethyl)piperidin-4-yl)methyl)benzamide]: the values for the IC50 in series [2] and in series [3] were 2.65 µM and 2.84 µM, respectively.

In the case of `C[C@H]1CC[C@H](NCC(=O)N2CCC(CNC(=O)c3cc(F)cc(C(F)(F)F)c3)CC2)CC1` [Compound 291, 3-fluoro-N-((1-(2-((1r,4r)-4-methylcyclohexylamino)acetyl)piperidin-4-yl)methyl)-5-(trifluoromethyl)benzamide], the IC50 in series [2] is less than 0.3 µM; in series [3], 0.51 µM.

`COc1cc(Cl)cc(C(=O)NCC2CCN(CCNS(=O)(=O)C(C)C)CC2)c1` [Compound 320, 3-chloro-5-methoxy-N-((1-(2-(1-methylethylsulfonamido)ethyl)piperidin-4-yl)methyl)benzamide]: the concentration for half-maximal inhibition (IC50) worked out at 0.76 µM in series [2] and 1.62 µM in series [3].

In the case of `Cc1cc(C)cc(C(=O)NCC2CCN(CCNC(=O)C(C)(C)C(F)(F)F)CC2)c1` [Compound 488, 3,5-dimethyl-N-((1-(2-(3,3,3-trifluoro-2,2-dimethylpropanamido)ethyl)piperidin-4-yl)methyl)benzamide], the IC50 in series [2] is 0.42 µM; in series [3] it was 0.13 µM.

As for `CC(C)NC(=O)CN1CCC(CNC(=O)c2cccc(C(F)(F)F)c2)CC1` [Compound 440, N-((1-(2-(isopropylamino)-2-oxoethyl)piperidin-4-yl)methyl)-3-(trifluoromethyl)benzamide], the IC50 in series [2] and in series [3] was greater than 10 µM throughout.

As for `CN(CCN1CCC(CNC(=O)c2cc(F)cc(C(F)(F)F)c2)CC1)C(=O)C1CCCC1` [Compound 516, 3-fluoro-N-((1-(2-(N-methylcyclopentanecarboxamido)ethyl)piperidin-4-yl)methyl)-5-(trifluoromethyl)benzamide], the IC50 in series [2] came out at 0.46 µM; in series [3], 0.22 µM.

For the compound `CC(C)(C)NC(=O)CN1CCC(CNC(=O)c2ccnc(N3CCCC3)c2)CC1` [Compound 373, N-((1-(2-(tert-butylamino)-2-oxoethyl)piperidin-4-yl)methyl)-2-(pyrrolidin-1-yl)isonicotinamide], the concentration for half-maximal inhibition (IC50) in series [2] and in series [3] was greater than 10 µM throughout.

For `CCC1CCCCN1CC(=O)N1CCC(CNC(=O)c2cc(F)cc(C(F)(F)F)c2)CC1` (stereo not drawn) [Compound 269, N-((1-(2-(2-ethylpiperidin-1-yl)acetyl)piperidin-4-yl)methyl)-3-fluoro-5-(trifluoromethyl)benzamide], the IC50 in series [2] was 1.4 µM; in series [3], 3.14 µM.

In the case of `CC(C)(C)OC(=O)NCCN1CCC(CNC(=O)c2cc(Cl)cc(C(F)(F)F)c2)CC1` [Compound 40, tert-butyl 2-(4-((3-chloro-5-(trifluoromethyl)benzamido)methyl)piperidin-1-yl)ethylcarbamate], the 50% inhibitory concentration (IC50) is less than 0.3 µM in series [2] and 0.16 µM in series [3].

On to `CC(C(=O)NC1(C)CCCCC1)N1CCC(CNC(=O)c2cc(F)cc(Cl)c2)CC1` (stereo not drawn) [Compound 550, 3-chloro-5-fluoro-N-((1-(1-(1-methylcyclohexylamino)-1-oxopropan-2-yl)piperidin-4-yl)methyl)benzamide], for which the values for the IC50 in series [2] and in series [3] were less than 0.3 µM and 0.02 µM, respectively.

`CS(=O)(=O)c1cc(C(=O)NCC2CCN(CCNC(=O)C3(C(F)(F)F)CCC3)CC2)cc(C(F)(F)F)c1` [Compound 586, 3-(methylsulfonyl)-5-(trifluoro-methyl)-N-((1-(2-(1-(trifluoromethyl)cyclobutane-carboxamido)ethyl)piperidin-4-yl)methyl)benzamide]: the results for the IC50 in series [2] and in series [3] were greater than 10 µM and 4.8 µM, respectively.

In the case of `Cc1cc(C)cc(C(=O)NCC2CCN(CC(=O)NC(C)C)CC2)c1` [Compound 436, N-((1-(2-(isopropylamino)-2-oxoethyl)piperidin-4-yl)methyl)-3,5-dimethylbenzamide], the IC50 in series [2] and in series [3] was greater than 10 µM in each case.

Consider `CC(C)(C)OC(=O)NCCN1CCC(CNC(=O)c2ccc(Oc3ccccc3)cc2)CC1` [Compound 57, tert-buyl 2-(4-((4-phenoxybenzamido)methyl)piperidin-1-yl)ethylcarbamate], for which the IC50 was 1.05 µM in series [2] and greater than 10 µM in series [3].

In the case of `CCOC(=O)NCCN1CCC(CNC(=O)c2cc(C(F)(F)F)cc(C(F)(F)F)c2)CC1` [Compound 36, ethyl 2-(4-((3,5-bis(trifluoromethyl)benzamido)methyl)piperidin-1-yl)ethylcarbamate], the IC50 was found to be 4.3 µM in series [2] and 1.7 µM in series [3].

On to `CC(C)(C)C(=O)NCCN1CCC(CNC(=O)/C=C/c2cc(Cl)cc(Cl)c2)CC1` [Compound 300, (E)-3-(3,5-dichlorophenyl)-N-((1-(2-pivalamidoethyl)piperidin-4-yl)methyl)acrylamide], for which the results for the IC50 in series [2] and in series [3] were 2.81 µM and 3.25 µM, respectively.
